Consider six compounds from PubChem BioAssay (NCI).

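A five-concentration, 48-hour dose response in 96-well plates underlies each endpoint, interpolated linearly between surrounding concentrations. GI50 = concentration required for 50% inhibition of growth. Definition used: TGI = concentration required for complete inhibition of growth.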 Where only a bound is given, the exact number is not on record here.

Test systems include NCI-H23 lung; EKVX NSCLC; IGROV1 ovarian; HCT-116 colon; SW-620 colon; SN12C renal; UACC-62 melanoma; U251 CNS; KM12 colon; UACC-257 melanoma.
Common to all, as to assay: NCI-60 cell line screen, 48 h

Regarding `O=C1Nc2ccccc2/C1=N\[O-].O=C1Nc2ccccc2/C1=N\[O-].[Cu+2]`, the GI50 with NCI-H23 lung, in the test with EKVX NSCLC, in the test on IGROV1 ovarian, in the test with HCT-116 colon, with SW-620 colon and in the test with SN12C renal was above 100 µM throughout. In addition, the GI50 with UACC-62 melanoma, in the test on U251 CNS, in the test on KM12 colon and in the test on UACC-257 melanoma was above 100 µM each time. Besides, the TGI in the test with NCI-H23 lung, with EKVX NSCLC, in the test on IGROV1 ovarian, in the test with HCT-116 colon, with SW-620 colon and in the test with SN12C renal was above 100 µM each time. The TGI with UACC-62 melanoma, with U251 CNS, with KM12 colon and in the test with UACC-257 melanoma was above 100 µM each time.

As for `O=C1OCC2=C1C(c1cccc(Br)c1)c1cc3c(cc1N2CCO)CCC3` (stereo not given), the GI50 was 0.136 µM in the test on NCI-H23 lung; 0.682 µM in the test on EKVX NSCLC; 0.157 µM in the test on IGROV1 ovarian; 0.0904 µM in the test with HCT-116 colon; 0.0583 µM with SW-620 colon; 0.246 µM with SN12C renal. Also, the GI50 is 0.0223 µM in the test with UACC-62 melanoma, 0.108 µM in the test with U251 CNS, 0.0329 µM in the test on KM12 colon and 0.0235 µM with UACC-257 melanoma. The TGI with NCI-H23 lung came out at 8.42 µM; in the test with EKVX NSCLC, 19.5 µM; with IGROV1 ovarian, 10.7 µM; in the test with HCT-116 colon it was 3.04 µM; in the test with SW-620 colon, 8.47 µM; in the test on SN12C renal, 6.9 µM. The TGI in the test with UACC-62 melanoma is 8.18 µM; in the test on U251 CNS it was 1.55 µM; with KM12 colon, 1.04 µM; in the test on UACC-257 melanoma, 8.12 µM.

For `CCOC(=O)C(Cc1ccc(CCCC(=O)NCCC(=O)Nc2ccc3nc(C)sc3c2)cc1)C(=O)OCC`, the GI50 with NCI-H23 lung is 28.9 µM; in the test with EKVX NSCLC it was 53.7 µM; in the test on IGROV1 ovarian, 64.8 µM; with HCT-116 colon it was 45.8 µM; in the test on SW-620 colon it was above 93.2 µM; in the test with SN12C renal it was 31.4 µM. The GI50 is 26.2 µM in the test on UACC-62 melanoma, above 81.4 µM in the test with U251 CNS, 33.4 µM in the test with KM12 colon and 34.7 µM with UACC-257 melanoma. The TGI in the test with NCI-H23 lung was above 93.7 µM; in the test on EKVX NSCLC, above 100 µM; in the test on IGROV1 ovarian, above 100 µM; in the test on HCT-116 colon, above 100 µM; in the test with SW-620 colon, above 100 µM; in the test on SN12C renal, above 100 µM. In addition, the TGI is above 69.5 µM in the test on UACC-62 melanoma, above 100 µM in the test with U251 CNS, above 100 µM with KM12 colon and above 87.1 µM in the test with UACC-257 melanoma.

Regarding `CCn1c2ccccc2c2cc(NC(=O)Nc3ccc([N+](=O)[O-])cc3C)ccc21`, the GI50 was 3.9 µM in the test on NCI-H23 lung; 5.35 µM in the test with EKVX NSCLC; 3.38 µM with IGROV1 ovarian; 3.17 µM with HCT-116 colon; 3.38 µM with SW-620 colon; 9.3 µM in the test with SN12C renal. In addition, the GI50 in the test with UACC-62 melanoma is 5.76 µM; in the test on U251 CNS, 3.85 µM; in the test with KM12 colon it was 2.69 µM; with UACC-257 melanoma, 16.6 µM. For the same compound, the TGI with NCI-H23 lung is 30.6 µM; in the test on EKVX NSCLC it was above 100 µM; in the test on IGROV1 ovarian it was 14.1 µM; with HCT-116 colon, 17.4 µM; in the test with SW-620 colon, 48.1 µM; in the test with SN12C renal it was above 100 µM. Moreover, the TGI was above 100 µM in the test with UACC-62 melanoma, 21.6 µM in the test on U251 CNS, 16.8 µM in the test with KM12 colon and 68.7 µM in the test on UACC-257 melanoma.

As for `CC[C@H]1[C@@H]2C=C[C@@H]3[C@H]4C/C=C\C(=O)NCCC[C@@H]5NC(=O)/C(=C(O)/C=C/[C@@H]4C[C@@H]3[C@H]2C[C@H]1C)C5=O`, the GI50 in the test on NCI-H23 lung was 1.81 µM; in the test with EKVX NSCLC, 1.45 µM; in the test with IGROV1 ovarian, 0.252 µM; with HCT-116 colon, 1.48 µM; in the test on SW-620 colon, 2.46 µM; in the test with SN12C renal it was 0.569 µM. Also, the GI50 is 1.66 µM in the test with UACC-62 melanoma, 1.82 µM in the test on U251 CNS, 3.03 µM in the test on KM12 colon and 1.71 µM with UACC-257 melanoma. For the same compound, the TGI came to 4.28 µM in the test on NCI-H23 lung; 3.31 µM in the test with EKVX NSCLC; 0.756 µM with IGROV1 ovarian; 3.03 µM with HCT-116 colon; 7.59 µM with SW-620 colon; 1.99 µM with SN12C renal. Further, the TGI in the test with UACC-62 melanoma is 3.17 µM; in the test on U251 CNS it was 3.33 µM; in the test with KM12 colon it was 9.88 µM; in the test on UACC-257 melanoma, 3.49 µM.

As for `Clc1ccc2[nH]cc(-c3nnnn3-c3ccccc3)c2c1`, the GI50 in the test with NCI-H23 lung was 8.11 µM; with EKVX NSCLC, 28.3 µM; in the test with IGROV1 ovarian, 29.4 µM; with HCT-116 colon, 18.3 µM; in the test on SW-620 colon, 14.9 µM; in the test with SN12C renal, 32.8 µM. Further, the GI50 was 11.2 µM in the test with UACC-62 melanoma, 14 µM in the test on U251 CNS, 2.99 µM in the test with KM12 colon and 24.9 µM with UACC-257 melanoma. The TGI was 49.9 µM with NCI-H23 lung; above 100 µM in the test on EKVX NSCLC; above 77 µM in the test with IGROV1 ovarian; 57.5 µM with HCT-116 colon; above 100 µM with SW-620 colon; above 100 µM with SN12C renal. The TGI was above 100 µM in the test with UACC-62 melanoma, above 78.9 µM in the test on U251 CNS, 19 µM in the test on KM12 colon and 71 µM with UACC-257 melanoma.
